{"source": "paper PMC6198280", "about": "“Chemical Instability and Promiscuity of Arylmethylidenepyrazolinone-Based MDMX Inhibitors” (ACS Chemical Biology, 2018)", "molecular_target": "T1, MDMX (Homo sapiens, UniProt O15151)", "T1 construct": "gene MDM4", "T1 sequence (O15151 1-120)": "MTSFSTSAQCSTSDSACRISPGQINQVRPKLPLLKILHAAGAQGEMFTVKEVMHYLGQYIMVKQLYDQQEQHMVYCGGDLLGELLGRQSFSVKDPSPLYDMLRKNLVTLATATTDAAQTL", "assay": "ITC; MALDI-TOF MS of covalent adducts, no reducing agent", "assay_type": "binding", "note": "pKd: −log10 of the molar value."}
{"smiles": "CCOc1cc(/C=C2\\C(=O)N(c3ccccc3)N=C2C)cc(Cl)c1OCC(=O)OC", "note": "[compound 1, SJ-172550]", "values": [{"measurement": "pKd", "value": "< 4.89"}]}
